Test results from patent US20070122830A1, “Prohibitin-directed diagnostics and therapeutics for cancer and chemotherapeutic drug resistance” (Aurelium BioPharma Inc., priority 2005, published 2007).
pEC50, pIC50: −log10 of the molar value. Where two headings read alike, the source gives them in different places.

Legend:
Type in all cases: cell-based, human
[1] = system: SKOV3 Ovarian Cancer Cell Line; test: MTT cytotoxicity assay, transfected SKOV3 cells plus chemotherapeutic drug; details: for pIC50: Homo sapiens, SK-OV-3, SKOV3 cells, mock-transfected control, read-out: EC50, Control; for pEC50 / fold change of EC50, Prohibitin vs Control: SKOV3 cells; for pEC50: prohibitin (siRNA) transfected, read-out: EC50, Prohibitin; for fold change of EC50, Prohibitin vs Control: direction IS/IR in same cell (E54)
Method: (§1) For a typical siRNA transfection, 1 nmole of the annealed siRNA duplex was mixed with 1.4 ml of Opti-MEM reagent (Invitrogen). In another tube, […] of Oligofectamine reagent (Invitrogen, Carlsbad, Calif.) was mixed with […] of Opti-MEM. The two solutions were combined and mixed gently by inversion and incubated for 20 min. at RT. The resulting solution was added to the cultured cells drop by drop in a 10 cm dish (cells are approximately 40-50% confluent). The next day the transfected cells were trypsinized and seeded in 6 or 96-well plates and further incubated for the indicated amount of time (assay dependent) before further analysis.
(§2) RNA-transfected cells were seeded in triplicate into 96-well plates at 5×10^3 cells/well 48 hrs post-transfection. The cells were incubated for an additional 16 to 24 hrs before they were exposed to increasing concentrations of cytotoxic drugs. […] Appropriate dilutions were made in the respective media for each cell line. Following addition of drugs, incubation was continued for an additional 72 hrs. […] of MTT dye (5 mg/ml) were added into each well and the plate was further incubated at 37° C. for 4 hrs. The dye was solubilized with 10% Triton X-100, 0.01 N HCl and further incubated at 37° C. in the dark for 30 min. Cell viability was determined by measure of absorption at 570 nm in a Wallac multiwell plate reader (PerkinElmer, Inc., Boston, Mass.). The averages of triplicate wells were plotted using the Prism software (GraphPad Software, Inc., San Diego, Calif.).
Each table summarizes the results of an individual experiment performed in triplicate.

[2] = system: MCF-7 Breast Cancer Cell Line; test: MTT cytotoxicity assay, transfected MCF-7 cells plus chemotherapeutic drug; details: for sensitivity to drug of prohibitin siRNA treated cells: MCF-7, FIGS. 15A-15H; for pEC50: prohibitin (siRNA) transfected, read-out: EC50, Prohibitin; for fold change of EC50, Prohibitin vs Control: direction IS/IR in same cell (E42)
Method: as §1
as §2, with “Cell survival was determined using the MTT cytotoxicity assay (see, e.g., Tokuyama et al. (2005) Anticancer Res. 25(1A): 17-22). RNA-transfected” for “RNA-transfected”, “drugs. Doxorubicin (adriamycin), cisplatinum, taxol, vinblastin, vincristin, and mitoxantrone were all purchased from Sigma Corp. (St. Louis, Mo.).” for “drugs.”
Cell survival was determined as described in Example 3 above.

[3] = system: MDA Breast Cancer Cell Line; test: MTT cytotoxicity assay, transfected MDA cells plus chemotherapeutic drug; details: for pIC50: Homo sapiens, mock-transfected control, read-out: EC50, Control; for pIC50 / pEC50 / fold change of EC50, Prohibitin vs Control: MDA cells; for pEC50: prohibitin (siRNA) transfected, read-out: EC50, Prohibitin
Method: as §1, §2

[4] = Table 3 experiment, direction IS/IR in same cell (E6)
[5] = Table 8 experiment, direction IS/IR in same cell (E36)

SMILES	pIC50 ([1]; Table 10 experiment)	pIC50 ([1]; Table 11 experiment)	pEC50 ([1]; Table 10 experiment)	pEC50 ([1]; Table 11 experiment)	fold change of EC50, Prohibitin vs Control ([1]; Table 11 experiment) [x]	sensitivity to drug of prohibitin siRNA treated cells [2]	pEC50 ([2]; MCF-7 cells, Table 9)	fold change of EC50, Prohibitin vs Control ([2]; MCF-7 cells, Table 9) [x]	pIC50 ([3]; Table 3 experiment)	pIC50 ([3]; Table 4 experiment)	pIC50 ([3]; Table 5 experiment)	pIC50 ([3]; Table 6 experiment)	pIC50 ([3]; Table 7 experiment)	pIC50 ([3]; Table 8 experiment)	pEC50 ([3]; Table 3 experiment)	pEC50 ([3]; Table 4 experiment)	pEC50 ([3]; Table 5 experiment)	pEC50 ([3]; Table 6 experiment)	pEC50 ([3]; Table 8 experiment)	sensitivity to drug of prohibitin siRNA treated cells compared to mock controls ([3]; MDA, FIGS. 14A-14H)	also measured
CC(=O)O[C@H]1C(=O)[C@@]2(C)[C@H]([C@H](OC(=O)c3ccccc3)[C@]3(O)C[C@H](OC(=O)[C@H](O)[C@@H](NC(=O)c4ccccc4)c4ccccc4)C(C)=C1C3(C)C)[C@]1(OC(C)=O)CO[C@@H]1C[C@@H]2O [Taxol]	9.05	8.74	9.27	8.96	1.7	more sensitive	8.58	30.0	6.70	6.50	8.29	7.97	8.08	7.72	6.29	6.52	8.18	8.21	7.90	more sensitive	increase in sensitivity to drug as compared to controls ([2]; MCF-7 cells treated with prohibitin siRNA, FIG. 15B): 30 fold; pEC50 ([3]; Table 7 experiment): 8.36; fold change of EC50, Prohibitin vs Control [3, 4]: 2.6 x; fold change of EC50, Prohibitin vs Control ([3]; Table 5 experiment, direction IS/IR in same cell (E18)): 1.3 x; fold change of EC50, Prohibitin vs Control ([3]; Table 6 experiment, direction IS/IR in same cell (E24)): 1.7 x; fold change of EC50, Prohibitin vs Control ([3]; Table 7 experiment, direction IS/IR in same cell (E30)): 1.9 x; fold change of EC50, Prohibitin vs Control [3, 5]: 1.5 x; sensitivity to drug of prohibitin siRNA treated cells compared to mock controls ([3]; MDA, FIGS. 12A-12D): increased sensitivity; sensitivity to drug of prohibitin siRNA treated cells compared to mock controls ([3]; MDA, FIGS. 13A-13H): increased the sensitivity
COc1cccc2c1C(=O)c1c(O)c3c(c(O)c1C2=O)C[C@@](O)(C(=O)CO)C[C@@H]3O[C@H]1C[C@H](N)[C@H](O)[C@H](C)O1 [Doxorubicin]	7.67	10.58	7.89	10.91	–	more sensitive	7.52	–	8.84	9.06	8.76	8.65	9.64	9.75	8.76	8.90	9.00	8.77	9.86	more sensitive	sensitivity to drug of prohibitin siRNA treated cells compared to controls ([3]; MDA, FIG. 11A): increased sensitivity; sensitivity to drug of prohibitin siRNA treated cells compared to mock controls ([3]; MDA, FIGS. 13A-13H): increased sensitivity
CC[C@]1(O)C[C@H]2CN(CCc3c([nH]c4ccccc34)[C@@](C(=O)OC)(c3cc4c(cc3OC)N(C=O)[C@H]3[C@@](O)(C(=O)OC)[C@H](OC(C)=O)[C@]5(CC)C=CCN6CC[C@]43[C@@H]65)C2)C1 [Vincristin]	8.43	8.45	8.50	8.60	1.4	–	6.46	2.1	5.55	5.83	–	–	7.91	7.91	6.08	4.73	–	–	8.37	more sensitive	change in sensitivity to the drug, Prohibitin vs Control ([2]; MCF-7 cells, Table 9): IR (IR: “increased in resistance” to the drug); fold change of EC50, Prohibitin vs Control [3, 4]: 3.4 x; fold change of EC50, Prohibitin vs Control ([3]; Table 4 experiment, direction IS/IR in same cell (E12)): 12.5 x; fold change of EC50, Prohibitin vs Control [3, 5]: 2.9 x; sensitivity to drug of prohibitin siRNA treated cells compared to mock-treated cells ([3]; MDA, FIG. 9A-9H): increased sensitivity
